{"source": "patent US9526785B2", "about": "“Pharmaceuticals for oral delivery” (Enteris BioPharma, Inc., priority 2013, dated 2016)", "assay": "Tigecycline plasma PK and % F after PO enteric-coated capsule in dogs", "type": "in vivo, Beagle dogs", "conditions": "female, beagle, dog, plasma, po; for concentration at 60 min / concentration at 75 min / concentration at 90 min / concentration at 120 min / concentration at 150 min / concentration at 180 min / concentration at 210 min / concentration at 240 min / concentration at 0 hr / concentration at 0.3 hr / concentration at 0.7 hr / concentration at 1 hr: Tigecycline Plasma Concentration; for concentration at 60 min / concentration at 75 min / concentration at 90 min / concentration at 120 min / concentration at 150 min / concentration at 180 min / concentration at 210 min / concentration at 240 min: SC424; for bioavailability: read-out: % F; for Tmax: read-out: Tmax (converted); for concentration at 0 hr / concentration at 0.3 hr / concentration at 0.7 hr / concentration at 1 hr: PO 30 mg unformulated enteric-coated capsule", "description": "Adult beagle dogs weighing approximately 9 to 15 kg were used in the study. […] Room temperature was set to be maintained between approximately 20±5° C. Relative humidity was monitored but not controlled.\nTEKLAD™ Certified Canine Diet was provided once daily in amounts (˜400 grams) appropriate for the size and age of the animals. Tap water was available ad libitum via automatic watering device or water bowls.\nOral dosing of enteric-coated capsules was accomplished by administering them to the back of the dog's mouth, followed by a chase of 5 mL water to ensure swallowing.\nWater was provided ad libitum. […] Subsequently, each group of animals was dosed based on the protocol, i.e. either IV, or PO by capsule.\nMinocycline (VWR international) was used as an internal standard. Sample processing/clean-up of plasma samples was carried out offline by protein precipitation with acidified acetonitrile using 0.5% trifluoroacetic acid (TFA).\nThe HPLC system consisted of Shimadzu SIL-HTc HPLC system equipped with dual Shimadzu LC-10ADvp isopumps, a Shimadzu CTO-10ASvp column temperature controller and a Shimadzu SPD-10Avp variable wavelength detector. […] Mobile phase A consisted of 23 mM phosphate buffer pH 2.5 with 4 mM 1-octanesulfonic acid, while mobile phase B consisting of 90% acetonitrile, 10% water, with 2 mM 1-octanesulfonic acid. […] The total runtime was 18 minutes per sample. The mobile phase flow rate was 1.2 mL/min. Detection was performed using the SPD-10Avp variable wavelength detector set at 350 nm, with a sensitivity of 0.001 aufs.\nThe samples were then centrifuged under refrigeration at 13 k rpm for 5 minutes. The supernatant was taken and the liquid removed to dryness under nitrogen in a turbovap. The dried extract was reconstituted in 60 μL of mobile phase A and the suspension was further centrifuged at 5 k rpm for 5 minutes to pellet any insoluble matter. The resulting supernatant was then injected onto the LC.\nThe unknown concentration in dog plasma samples was determined by interpolation of the peak area ratios of analyte:internal standard versus the ratio of their nominal concentrations into the regression line obtained from calibration standards spiked in pooled dog plasma. No regression weighting was used for the calculations. […] The calibration curve covered the range of 0.05 μg/mL to 5 μg/mL. […]\nThe capsules were enterically coated using a standard preclinical protocol to 10% weight gain. Two studies were conducted.", "key": {"[1]": {"conditions": "15 mg, PO 15 mg enteric-coated capsule with 500 mg CA and 100 mg LLC, mean"}, "[2]": {"conditions": "15 mg, PO 15 mg unformulated enteric-coated capsule, individual dogs"}, "[3]": {"conditions": "15 mg, PO 15 mg unformulated enteric-coated capsule, mean"}, "[4]": {"conditions": "30 mg, 30 mg Formulated (500 mg CA, 100 mg LLC) enteric coated capsule, Study 2 (SC430), mean (% CV) excluding animal 5256"}}, "note": "Where two headings read alike, the source gives them in different places.", "data": [{"smiles": "CN(C)c1cc(NC(=O)CNC(C)(C)C)c(O)c2c1C[C@H]1C[C@H]3[C@H](N(C)C)C(O)=C(C(N)=O)C(=O)[C@@]3(O)C(O)=C1C2=O", "note": "[Tigecycline]", "values": [{"measurement": "concentration at 60 min", "setting": "[1]", "value": 18.7, "unit": "ng/mL"}, {"measurement": "concentration at 60 min", "setting": "[2]", "value": 0, "unit": "ng/mL"}, {"measurement": "concentration at 60 min", "setting": "[3]", "value": 0, "unit": "ng/mL"}, {"measurement": "concentration at 75 min", "setting": "[1]", "value": 46.1, "unit": "ng/mL"}, {"measurement": "concentration at 75 min", "setting": "[2]", "value": 0, "unit": "ng/mL"}, {"measurement": "concentration at 75 min", "setting": "[3]", "value": 0, "unit": "ng/mL"}, {"measurement": "concentration at 90 min", "setting": "[1]", "value": 53.8, "unit": "ng/mL"}, {"measurement": "concentration at 90 min", "setting": "[2]", "value": 0, "unit": "ng/mL"}, {"measurement": "concentration at 90 min", "setting": "[3]", "value": 0, "unit": "ng/mL"}, {"measurement": "concentration at 120 min", "setting": "[1]", "value": 51.5, "unit": "ng/mL"}, {"measurement": "concentration at 120 min", "setting": "[2]", "value": 0, "unit": "ng/mL"}, {"measurement": "concentration at 120 min", "setting": "[3]", "value": 0, "unit": "ng/mL"}, {"measurement": "concentration at 150 min", "setting": "[1]", "value": 41.7, "unit": "ng/mL"}, {"measurement": "concentration at 150 min", "setting": "[2]", "value": 0, "unit": "ng/mL"}, {"measurement": "concentration at 150 min", "setting": "[3]", "value": 0, "unit": "ng/mL"}, {"measurement": "concentration at 180 min", "setting": "[1]", "value": 37.4, "unit": "ng/mL"}, {"measurement": "concentration at 180 min", "setting": "[2]", "value": 0, "unit": "ng/mL"}, {"measurement": "concentration at 180 min", "setting": "[3]", "value": 0, "unit": "ng/mL"}, {"measurement": "concentration at 210 min", "setting": "[1]", "value": 36.3, "unit": "ng/mL"}, {"measurement": "concentration at 210 min", "setting": "[2]", "value": 0, "unit": "ng/mL"}, {"measurement": "concentration at 210 min", "setting": "[3]", "value": 0, "unit": "ng/mL"}, {"measurement": "concentration at 240 min", "setting": "[1]", "value": 35.2, "unit": "ng/mL"}, {"measurement": "concentration at 240 min", "setting": "[2]", "value": 0, "unit": "ng/mL"}, {"measurement": "concentration at 240 min", "setting": "[3]", "value": 0, "unit": "ng/mL"}, {"measurement": "Cmax", "setting": "15 mg, target dose 15 mg, enterically coated capsule, read-out: Observed Mean Cmax", "value": 75.5, "unit": "ng/mL"}, {"measurement": "AUC(0-t)", "setting": "15 mg, target dose 15 mg, enterically coated capsule, time scale adjusted to 4 hours, read-out: Observed AUC(0-t)", "value": 133, "unit": "ng·h/mL"}, {"measurement": "bioavailability", "setting": "[4]", "value": 14.9, "unit": "%"}, {"measurement": "AUC(0-t)", "setting": "30 mg, 30 mg Formulated (500 mg CA, 100 mg LLC) enteric coated capsule, Study 2 (SC430), mean (% CV) excluding animal 5256, read-out: AUC(0-t)", "value": 367, "unit": "ng·h/mL"}, {"measurement": "Cmax", "setting": "30 mg, 30 mg Formulated (500 mg CA, 100 mg LLC) enteric coated capsule, Study 2 (SC430), mean (% CV) excluding animal 5256, read-out: Cmax", "value": 121, "unit": "ng/mL"}, {"measurement": "Tmax", "setting": "[4]", "value": 1.58, "unit": "h"}, {"measurement": "bioavailability", "setting": "30 mg, 30 mg Unformulated enteric coated capsule, Study 2 (SC430)", "value": 0, "unit": "%"}, {"measurement": "AUC(0-t)", "setting": "30 mg, PO 30 mg enteric-coated capsule with 500 mg CA and 100 mg LLC ([…]), SC430, mean excluding animal 5256, read-out: AUC(0-t)", "value": 367, "unit": "ng·h/mL"}, {"measurement": "Cmax", "setting": "30 mg, PO 30 mg enteric-coated capsule with 500 mg CA and 100 mg LLC ([…]), SC430, mean excluding animal 5256, read-out: Cmax", "value": 121, "unit": "ng/mL"}, {"measurement": "Tmax", "setting": "30 mg, PO 30 mg enteric-coated capsule with 500 mg CA and 100 mg LLC ([…]), SC430, mean excluding animal 5256", "value": 1.6, "unit": "h"}, {"measurement": "bioavailability", "setting": "30 mg, PO 30 mg enteric-coated capsule with 500 mg CA and 100 mg LLC, SC430, calculated from IV PK data of SC431, mean excluding animal 5256", "value": 14.9, "unit": "%"}, {"measurement": "bioavailability", "setting": "30 mg, PO 30 mg unformulated enteric-coated capsule ([…]), SC430, individual dogs", "value": 0, "unit": "%"}, {"measurement": "bioavailability", "setting": "30 mg, PO 30 mg unformulated enteric-coated capsule ([…]), SC430, mean", "value": 0, "unit": "%"}, {"measurement": "Tmax", "setting": "30 mg, Study 2 (SC430), 30 mg Formulated enteric coated capsule (500 mg citric acid, 100 mg LLC), oral, dogs, N=4 excluding animal 5256, mean (% CV)", "value": 1.58, "unit": "h"}, {"measurement": "bioavailability", "setting": "30 mg, Study 2 (SC430), 30 mg Unformulated enteric coated capsule (microcrystalline cellulose filler), oral, dogs, N=3, based on that study's IV arm", "value": 0, "unit": "%"}, {"measurement": "concentration at 0 hr", "setting": "30 mg, SC430, individual dogs", "value": 0, "unit": "ng/mL"}, {"measurement": "concentration at 0 hr", "setting": "30 mg, SC430, mean", "value": 0, "unit": "ng/mL"}, {"measurement": "concentration at 0.3 hr", "setting": "30 mg, SC430, individual dogs", "value": 0, "unit": "ng/mL"}, {"measurement": "concentration at 0.3 hr", "setting": "30 mg, SC430, mean", "value": 0, "unit": "ng/mL"}, {"measurement": "concentration at 0.7 hr", "setting": "30 mg, SC430, individual dogs", "value": 0, "unit": "ng/mL"}, {"measurement": "concentration at 0.7 hr", "setting": "30 mg, SC430, mean", "value": 0, "unit": "ng/mL"}, {"measurement": "concentration at 1 hr", "setting": "30 mg, SC430, individual dogs", "value": 0, "unit": "ng/mL"}, {"measurement": "concentration at 1 hr", "setting": "30 mg, SC430, mean", "value": 0, "unit": "ng/mL"}]}]}
